Test results: patent publication US20040024033A1 (priority 1998, published 2004)

Assays:
[1] = tested on: PC-3M (Prostate); test: Antiproliferative assay, PC-3M; format: cell-based; settings: Homo sapiens, 72 h, 3 d exposure, mean ± SD, read-out: IC50-values for growth inhibition
Procedure: A human androgen-independent prostate cancer cell line is used to establish subcutaneous and orthotopic models in mice. The human metastatic prostate carcinoma PC-3M is obtained from Dr. I. J. Fidler (MD Anderson Cancer Center, Houston, Tex., USA) and is cultured in Ham's F12K media supplemented with 7% v/v FBS. The PC-3M cell line is the result of isolation from liver metastasis produced in nude mice subsequent to intrasplenic injection of PC-3 cells [ATCC CRL 1435; American Type Culture Collection (Rockville, Md., USA)], and they can grow in Eagle's MEM supplemented with 10% fetal bovine serum, sodium pyruvate, non-essential amino acids, L-glutamine, a two-fold vitamin solution (Gibco Laboratories, Long Island, N.Y.) and penicillin-streptomycin (Flow Laboratories, Rockville, Md.). The PC-3M cell line is hormone-insensitive (that is, it grows in the absence of androgens). […] No normal Y chromosomes can be detected by Q-band analysis.
(§1) Antiproliferative assays are performed as previously described (Int. J. Cancer 43, 851-6 (1989)). […] After washing, the dye is eluted with 3% V/V HCl and the optical density measured at 665 nm with a SpectraMax 340 (Bucherer, Basel, Switzerland). IC50 values are determined by a computerized system (SoftPro, Bucherer, Basel, Switzerland) using the formula (OD test−OD start)/(OD control−OD start)×100. […]

[2] = tested on: ZR-75-1 (Breast); test: Antiproliferative assay, ZR-75-1; format: cell-based; settings: Homo sapiens, 120 h, 5 d exposure, mean ± SD, n = 3, read-out: IC50-values for growth inhibition
Procedure: (§2) Antiproliferative assays are performed as previously described (Int. J. Cancer 43, 851-6 (1989)). Briefly, cells are seeded at 1.5×10^3 cells/well into 96-well microtiter plates and incubated overnight. Compounds are added in serial dilutions on day 1. The plates are then incubated for an additional 2 to 5 days, allowing for at least one cell doubling (cell line dependent), after which the cells are fixed with 3.3% v/v glutaraldehyde, washed with water and stained with 0.05% w/v methylene blue. After washing, the dye is eluted with 3% V/V HCl and the optical density measured at 665 nm with a SpectraMax 340 (Bucherer, Basel, Switzerland). IC50 values are determined by a computerized system (SoftPro, Bucherer, Basel, Switzerland) using the formula (OD test−OD start)/(OD control−OD start)×100. IC50 is defined as the drug concentration which leads to 50% of cells per well compared to control cultures (100%) at the end of incubation period.

[3] = tested on: HCT-15 (Colon); test: Antiproliferative assay, HCT-15; format: cell-based; settings: Homo sapiens, 120 h, 5 d exposure, mean ± SD, n = 3, read-out: IC50-values for growth inhibition
Source text: Human colorectal adenocarcinoma cell line HCT-15 (ATCC CCL 225) is from the American Type Culture Collection (Rockville, Md., USA), and the cells are cultivated in vitro as recommended by the supplier. HCT-15 is an epithelial-like cell line (Cancer Res. 39: 1020-25 [1979]) that is multi-drug resistant by virtue of over-expression of P-glycoprotein (P-gp, gp170, MDR-1; Anticancer Res. 11: 1309-12 [1991]; J. Biol. Chem. 264: 18031-40 [1989]; Int. J. Cancer 1991; 49: 696-703 [1991]) and glutathione-dependent resistance mechanisms (Int. J. Cancer 1991; 49: 688-95.[1991]).
as §2, with “IC50 is defined as the drug concentration which leads to 50% of cells per well compared to control cultures (100%) at the end of incubation period.” left out

[4] = tested on: KB-8511 (Epidermoid, MDR); test: Antiproliferative assay, KB-8511; format: cell-based; settings: Homo sapiens, 48 h, 2 d exposure, mean ± SD, read-out: IC50-values for growth inhibition
Procedure: The human epidermal (mouth) carcinoma cell line KB-8511 (a P-gp over-expressing cell line derived from the epidermoid (mouth) KB-31 carcinoma cell line) is obtained from Dr. R. M. Baker, Roswell Park Memorial Institute (Buffalo, N.Y., USA) (for description see Akiyama et al., Somat. Cell. Mol. Genetics 11, 117-126 (1985) and Fojo A., et al., Cancer Res. 45, 3002-3007 (1985)) and is cultured as previously described (Meyer, T., et al., Int. J. Cancer 43, 851-856 (1989)): KB-8511 cells, like KB-31, are derived from the KB cell line (ATCC) and they are human epidermal carcinoma cells; KB-31 cells can be grown in mono-layer using Dulbecco's modified Eagle's medium (D-MEM) with 10% fetal calf serum (M.A. Bioproducts), L-glutamine (Flow), penicillin (50 units/ml) and streptomycin (50 μg/ml (Flow); they then grow with a doubling time of 22 h, and their relative plating efficiency is approximately 60%.
as §1

[5] = tested on: human COLO 205 colon tumors; format: in vivo, female BALB/c nude mice; settings: 75 mg/kg, i.v. every 7 days; day 32
Procedure: (§3) Female or male BALB/c nu/nu (nude) mice are kept under sterile conditions (10 to 12 mice per Type III cage) with free access to food and water. Mice weigh between 20 and 25 grams at the time of tumor implantation. Tumors are established by subcutaneous injection of cells (minimum 2×10^6 cells in 100 μl PBS or medium) in carrier mice (4-8 mice per cell line). The resulting tumors are serially passaged for a minimum of three consecutive transplantations prior to start of treatment. Tumor fragments (approx. 25 mg) are implanted s.c. into the left flank of animals with a 13-gauge trocar needle while the mice are exposed to Forene (Abbott, Switzerland) anesthesia.
(§4) Tumor growth and body weights are monitored once or twice weekly. All treatments are administered intravenously (i.v.) and are initiated when a mean tumor volume of approximately 100 to 250 mm^3 is attained, depending upon the tumor type. Tumor volumes are determined using the formula […] (see Cancer Chemother. Pharmacol. 24:148-154, [1989]). Treatments with epothilone B vary the dose and the frequency of administration. Comparator agents are administered according to previously determined optimal treatment regimens. In addition to presenting changes in tumor volumes over the course of treatment, antitumor activity is expressed as T/C% (mean increase of tumor volumes of treated animals divided by the mean increase of tumor volumes of control animals multiplied by 100). Tumor regression (%) represents the smallest mean tumor volume compared to the mean tumor volume at the start of treatment, according to the formula Regression (%)=(1−Vend/Vstart)×100 (Vend=final mean tumor volume, Vstart=mean tumor volume at the start of treatment. Any animals in which the tumor has reached a size exceeding approximately 1.5 to 2.5 cm^3 are sacrificed. Details can be found below.
Tumor fragments of approximately 25 mg are implanted into the left flank of each female nude mouse (n=7 per group); a subcutaneous estrogen pellet is placed on the opposite flank. Treatments are started on day 14 after tumor transplantation. epothilone B is administered at 4 mg/kg, i.v., either once or once per week (days 14, 21, 28) or every second week (days 14 and 28). 5-fluorouracil is administered i.v. at 75 mg/kg on days 14, 21, 28. Data presented are from animals surviving to day 32, four days after the last treatments. Antitumor activity is expressed as T/C% (mean increase of tumor volumes of treated animals divided by the mean increase of tumor volumes of control animals multiplied by 100). Tumor regression (%) represents the final mean tumor volume compared to the mean tumor volume at the start of treatment. Changes (A) in tumor volumes represent the tumor volume on the last treatment day minus the tumor volume on the first treatment day.

[6] = tested on: human HCT-15 colon carcinoma; format: in vivo, female BALB/c nude mice
Procedure: as §3, §4
Tumor fragments of approximately 25 mg are implanted into the left flank of each female nude mouse (n=8 per group). Treatments are started on day 14 after tumor transplantation. Epothilone B is administered once at 4 mg/kg, i.v. on day 14.5-Fluorouracil is administered at 75 mg/kg, i.v., on days 14 and 21. TAXOL® is administered i.v. at 20 mg/kg/day, every second day for 5 treatments (days 14, 16, 18, 20 and 22). Antitumor activity is expressed as T/C% (mean increase of tumor volumes of treated animals divided by the mean increase of tumor volumes of control animals multiplied by 100). Tumor regression (%) represents the final mean tumor volume compares to the mean tumor volume at the start of treatment. Δ Tumor volumes represent the tumor volume on the last treatment day minus the tumor volume on the first treatment day. Statistical analyses on Δ tumor volumes uses Dunnett's test to compare treatment groups to controls. Statistical analyses on body weight changes uses paired t-tests comparing body weights before treatment to those at the end of treatment; mice weigh ˜20-25 g at the start of treatment. Not significant is indicated by the abbreviation ,ns”. Data presented are means±SEM from animals surviving to the end of the experiment.

| IC50 [1] | IC50 [3] | IC50 [4] | Structure (SMILES) | IC50 [2] | T/C [5] | % Body Weight Change ([6]; 75 mg/kg, i.v., on days 14 and 21) | D Body Weight ([6]; 75 mg/kg, i.v., on days 14 and 21, mean ± SEM) | Mortalities (deaths) ([6]; two 75 mg/kg administrations) |
| --- | --- | --- | --- | --- | --- | --- | --- | --- |
| 6.74 nM | 106 ± 54 nM | 994 nM | CC(=O)O[C@H]1C(=O)[C@@]2(C)[C@H]([C@H](OC(=O)c3ccccc3)[C@]3(O)C[C@H](OC(=O)[C@H](O)[C@@H](NC(=O)c4ccccc4)c4ccccc4)C(C)=C1C3(C)C)[C@]1(OC(C)=O)CO[C@@H]1C[C@@H]2O [paclitaxel] | 3.6 ± 1.87 nM | – | – | – | – |
| – | – | – | O=c1[nH]cc(F)c(=O)[nH]1 [5-fluorouracil, reference compound] | – | 18% | 9 ± 4% | 2.0 ± 0.7 g | 50% |
